Data from paper PMC9150124, “Design of a Potent, Selective, and Brain-Penetrant Inhibitor of Wnt-Deactivating Enzyme Notum by Optimization of a Crystallographic Fragment Hit” (Journal of Medicinal Chemistry, 2022).
In brackets after ≈: the same amount, converted by molar mass. Several values for one entry are separate records, joined by “and”; a condition that tells them apart may be missing. Equal entries are not always repeated. Where two headings read alike, the source gives them in different places.

Experiments:
[1] = molecular target: kinase named in conditions (Homo sapiens, UniProt O00506); assay: SelectScreen kinase profiling, SSBK ZLyte SP Technology; assay type: biochemical; settings: STK25 (YSK1), 10 μM
Method: (§1) Kinase selectivity screening was performed by Thermo Fisher Scientific (Paisley, U.K.) in their SelectScreen Biochemical Kinase Profiling Service. Assay information and data are presented in the Supporting Information.
(§2) Kinase selectivity screening was performed by ThermoFisher Scientific (Paisley, U.K.) in their SelectScreenTM
(§3) Biochemical Kinase Profiling service .

[2] = molecular target: kinase named in conditions (Homo sapiens, UniProt Q9HC98); assay: as above; assay type: biochemical; settings: NEK6, 10 μM
Method: as §1, §2, §3

[3] = molecular target: kinase named in conditions (Homo sapiens, UniProt Q9HCP0); assay: as above; assay type: biochemical; settings: CSNK1G1 (CK1 gamma 1), 10 μM
Method: as §1, §2, §3

[4] = system: 47 human off-target liabilities; assay: DiscoverX Safety47 panel (78 functional assays); settings: @ 30 μM
Method: (§4) Screening for off-target pharmacology across multiple drug target classes was performed in the DiscoverX Safety47 panel as the SAFETYscan E/IC50 ELECT service by Eurofins (San Diego CA, U.S.A.). Assay information and data are presented in the Supporting Information.
(§5) Safety pharmacology studies
(§6) Screening for off-target pharmacology across multiple drug target classes was performed in the DiscoverX Safety47™ panel as the SAFETYscan E/IC50 ELECT service by eurofins (San Diego CA, U.S.A.). The assays were performed utilizing the PathHunter enzyme fragment complementation (EFC) technology, FLIPR®-based cellular screening assays, KINOMEscan kinase binding assays, and a variety of enzymatic assays (78 assays).

[5] = molecular target: T1, MAOA (Homo sapiens, UniProt P21397); assay: Safety47 MAOA assay; assay type: biochemical
T1 construct: Eurofins (DiscoverX Safety47)
Method: as §4, §5, §6

[6] = Aqueous solubility in PBS (pH 7.4); assay type: physicochemical
Excerpt: Biosciences (Hyderabad, India) or WuXi AppTec (Shanghai, China).
Table S1: Representative assay protocol

[7] = Stability in mouse liver microsomes; assay type: in vitro ADME; settings: for half-life: mouse, liver microsomes, read-out: MLM Stability t1/2
[8] = Brain tissue binding, rapid equilibrium dialysis; assay type: in vitro ADME, mouse; settings: for fraction unbound at 5 h, 10 µM: brain homogenate
Excerpt: Method: rapid equilibrium dialysis.
Test System Mouse Brain Homogenate 10% w/v in PBS
No. of Replicates Two (mouse) or three (rat)
Buffer Phosphate buffer saline, pH 7.4

[9] = molecular target: T2, CYP1A2 (Homo sapiens, UniProt P05177); assay: CYP450 inhibition in HLM
T2 sequence (P05177 1-516): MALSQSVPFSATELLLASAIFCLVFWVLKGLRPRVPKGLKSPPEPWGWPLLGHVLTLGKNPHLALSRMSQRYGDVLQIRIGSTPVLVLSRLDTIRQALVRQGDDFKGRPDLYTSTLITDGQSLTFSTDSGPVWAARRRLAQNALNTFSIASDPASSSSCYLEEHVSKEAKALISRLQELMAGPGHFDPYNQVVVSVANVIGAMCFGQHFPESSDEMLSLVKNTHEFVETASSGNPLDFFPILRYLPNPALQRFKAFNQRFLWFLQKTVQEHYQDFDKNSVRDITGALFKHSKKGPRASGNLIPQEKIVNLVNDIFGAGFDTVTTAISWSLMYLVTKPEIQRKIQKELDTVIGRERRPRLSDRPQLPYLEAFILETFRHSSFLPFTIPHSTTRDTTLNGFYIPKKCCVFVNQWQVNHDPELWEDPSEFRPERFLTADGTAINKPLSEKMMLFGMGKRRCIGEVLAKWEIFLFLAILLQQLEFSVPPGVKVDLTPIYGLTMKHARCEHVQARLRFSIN

[10] = molecular target: T3, CYP2B6 (Homo sapiens, UniProt P20813); assay: CYP450 inhibition in HLM
T3 sequence (P20813 1-491): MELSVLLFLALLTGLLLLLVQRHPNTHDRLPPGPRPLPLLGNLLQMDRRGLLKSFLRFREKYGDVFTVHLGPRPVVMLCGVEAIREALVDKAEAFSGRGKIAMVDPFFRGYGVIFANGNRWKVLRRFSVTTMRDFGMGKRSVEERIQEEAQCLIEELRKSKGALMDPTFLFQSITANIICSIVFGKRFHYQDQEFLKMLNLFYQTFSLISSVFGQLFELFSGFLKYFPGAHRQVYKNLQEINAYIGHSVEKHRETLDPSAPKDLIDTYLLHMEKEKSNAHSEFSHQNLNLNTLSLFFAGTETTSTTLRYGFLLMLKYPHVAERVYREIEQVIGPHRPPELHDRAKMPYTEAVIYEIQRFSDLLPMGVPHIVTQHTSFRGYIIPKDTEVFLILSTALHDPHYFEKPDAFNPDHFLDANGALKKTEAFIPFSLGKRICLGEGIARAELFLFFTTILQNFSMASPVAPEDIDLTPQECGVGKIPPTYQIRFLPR

[11] = molecular target: CYP2C9 (Homo sapiens, UniProt P11712); assay: CYP450 inhibition in HLM
[12] = Stability in rat liver microsomes
[13] = Metabolic stability in rat hepatocytes
[14] = Metabolic stability in mouse hepatocytes
[15] = Metabolic stability in human hepatocytes
[16] = system: serine hydrolases; assay: ABPP-TMT serine hydrolase selectivity in SW620 cells; settings: SW620 conditioned media and cell lysates
[17] = Sprague–Dawley male rats, i.v. 1.0 mg/kg

CYP2C9, sequence (P11712 whole entry): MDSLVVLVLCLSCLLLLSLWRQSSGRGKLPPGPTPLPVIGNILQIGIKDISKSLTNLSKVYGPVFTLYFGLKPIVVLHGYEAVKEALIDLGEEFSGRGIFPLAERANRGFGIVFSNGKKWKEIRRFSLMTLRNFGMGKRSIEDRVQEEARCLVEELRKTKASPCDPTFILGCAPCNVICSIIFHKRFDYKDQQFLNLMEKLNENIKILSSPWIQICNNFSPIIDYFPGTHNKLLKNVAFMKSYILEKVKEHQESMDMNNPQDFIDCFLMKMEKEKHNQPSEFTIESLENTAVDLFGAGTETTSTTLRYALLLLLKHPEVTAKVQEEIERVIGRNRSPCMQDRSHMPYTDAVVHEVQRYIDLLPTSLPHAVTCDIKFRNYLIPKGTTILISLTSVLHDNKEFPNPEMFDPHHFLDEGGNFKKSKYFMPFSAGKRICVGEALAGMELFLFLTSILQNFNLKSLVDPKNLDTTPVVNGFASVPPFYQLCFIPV
T1 sequence (P21397 whole entry): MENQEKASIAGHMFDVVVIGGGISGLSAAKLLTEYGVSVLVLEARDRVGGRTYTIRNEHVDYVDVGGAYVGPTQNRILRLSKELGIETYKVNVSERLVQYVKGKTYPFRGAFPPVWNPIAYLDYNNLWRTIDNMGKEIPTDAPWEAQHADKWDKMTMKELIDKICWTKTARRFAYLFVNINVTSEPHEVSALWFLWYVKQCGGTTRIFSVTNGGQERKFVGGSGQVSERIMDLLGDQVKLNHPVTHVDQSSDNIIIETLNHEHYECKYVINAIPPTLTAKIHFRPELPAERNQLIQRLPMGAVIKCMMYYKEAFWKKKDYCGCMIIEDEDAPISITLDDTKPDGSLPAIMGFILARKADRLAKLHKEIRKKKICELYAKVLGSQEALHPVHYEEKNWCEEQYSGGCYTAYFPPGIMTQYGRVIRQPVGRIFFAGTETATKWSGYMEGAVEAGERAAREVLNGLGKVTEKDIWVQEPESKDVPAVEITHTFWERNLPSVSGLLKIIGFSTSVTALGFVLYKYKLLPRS
kinase named in conditions (Homo sapiens, UniProt Q9HCP0), sequence (Q9HCP0 whole entry): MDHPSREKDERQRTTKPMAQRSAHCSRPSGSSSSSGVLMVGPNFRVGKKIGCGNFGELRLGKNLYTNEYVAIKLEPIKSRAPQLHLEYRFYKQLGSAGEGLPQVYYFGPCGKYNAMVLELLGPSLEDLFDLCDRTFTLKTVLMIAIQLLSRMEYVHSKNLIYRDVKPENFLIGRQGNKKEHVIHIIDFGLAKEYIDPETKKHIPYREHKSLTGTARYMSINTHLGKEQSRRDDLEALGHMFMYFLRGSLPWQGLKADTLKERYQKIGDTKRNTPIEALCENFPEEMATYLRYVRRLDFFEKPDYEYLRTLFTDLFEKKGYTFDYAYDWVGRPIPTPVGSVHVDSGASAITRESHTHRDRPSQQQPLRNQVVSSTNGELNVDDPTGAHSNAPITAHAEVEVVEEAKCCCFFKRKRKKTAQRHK
kinase named in conditions (Homo sapiens, UniProt Q9HC98), sequence (Q9HC98 whole entry): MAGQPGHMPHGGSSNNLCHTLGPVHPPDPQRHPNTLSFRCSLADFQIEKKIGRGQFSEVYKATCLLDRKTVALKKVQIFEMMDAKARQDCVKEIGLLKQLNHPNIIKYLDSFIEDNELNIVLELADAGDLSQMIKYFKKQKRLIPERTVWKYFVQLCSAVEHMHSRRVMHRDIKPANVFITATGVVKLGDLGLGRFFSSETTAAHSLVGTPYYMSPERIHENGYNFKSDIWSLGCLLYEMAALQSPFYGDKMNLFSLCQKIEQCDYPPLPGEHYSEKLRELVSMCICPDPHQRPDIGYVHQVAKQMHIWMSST
kinase named in conditions (Homo sapiens, UniProt O00506), sequence (O00506 whole entry): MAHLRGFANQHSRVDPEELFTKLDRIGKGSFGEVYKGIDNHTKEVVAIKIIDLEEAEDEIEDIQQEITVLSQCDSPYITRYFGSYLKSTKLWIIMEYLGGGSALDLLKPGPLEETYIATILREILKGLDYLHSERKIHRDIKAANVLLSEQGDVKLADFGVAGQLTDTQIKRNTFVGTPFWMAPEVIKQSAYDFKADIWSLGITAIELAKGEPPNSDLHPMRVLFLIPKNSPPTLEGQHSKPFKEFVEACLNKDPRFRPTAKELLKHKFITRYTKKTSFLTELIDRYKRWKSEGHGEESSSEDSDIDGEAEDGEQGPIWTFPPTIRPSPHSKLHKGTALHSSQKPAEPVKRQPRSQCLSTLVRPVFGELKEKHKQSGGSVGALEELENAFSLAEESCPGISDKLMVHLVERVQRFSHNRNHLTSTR

FC(F)(F)c1c(Cl)ccc(-n2ccnn2)c1Cl [8l, 1-(2,4-Dichloro-3-(trifluoromethyl)phenyl)-1H-1,2,3-triazole]
inhibition at 10 µM [1]: 5%
inhibition at 10 µM [2]: 12%
inhibition at 10 µM [3]: 4%
assays with >50% activity [4]: 3/78
IC50 [5]: 28 µM
solubility ([6]; PBS pH 7.4, read-out: aq. solubility): 68 µg/mL and 240 µM
solubility thermodynamic ([6]; PBS, pH 7.4, n = 2, read-out: Thermodynamic Solubility @ RT, mean): 68 µg/mL (≈ 241 µM)
MLM Cli [7]: 3.2 μL/min/mg protein
Liver microsome stability Cli, MLM ([7]; additional study (Table 5)): 11.7 μL/min/mg protein
half-life ([7]; Table S4): 2 h
half-life ([7]; Table S8): 1.97 h
fraction unbound at 5 h, 10 µM ([8]; 10% w/v in PBS, pH 7.4, mouse, 10 µM, 5 h, read-out: % Unbound in brain homogenate, mean): 0.0298
Brain binding, % bound ([8]; mouse brain homogenate): 97.0%
fraction unbound at 5 h, 10 µM ([8]; mouse, 10% w/v in PBS, pH 7.4, mouse brain homogenate, read-out: Brain binding, % bound (converted)): 0.0298
recovery at 5 h, 10 µM ([8]; mouse, mouse brain homogenate, 10% w/v in PBS, pH 7.4): 107%
CL [17]: 7.5 mL/min/kg
Vdss [17]: 2.0 L/kg
t1/2 [17]: 3.3 h
Fo (rat, p.o. 10 mg/kg): 140%
AUC0–inf (rat, p.o. 10 mg/kg, brain): 46 100 ng·h/g
Tmax (rat, p.o. 10 mg/kg, brain): 0.5 h
t1/2 (rat, p.o. 10 mg/kg, brain): 8.9 h
AUC0–inf (rat, p.o. 10 mg/kg, plasma): 32 000 ng·h/mL
Tmax (rat, p.o. 10 mg/kg, plasma): 4.0 h
t1/2 (rat, p.o. 10 mg/kg, plasma): 4.7 h
IC50 ([9]; read-out: CYP inhibition IC50, 1A2, HLM): 0.96 µM
IC50 ([9]; read-out: IC50 CYP1A2/Phenacetin, (+)NADPH pre-incubation): 0.963 µM
IC50 ([9]; read-out: IC50 CYP1A2/Phenacetin, (-)NADPH pre-incubation): 0.964 µM
IC50 [10]: 3.15 µM
IC50 ([10]; read-out: CYP inhibition IC50, 2B6, HLM): 5.2 µM
IC50 ([10]; read-out: IC50 CYP2B6/Bupropion, (+)NADPH pre-incubation): 5.21 µM
IC50 [11]: 19.6 µM
IC50 ([11]; read-out: CYP inhibition IC50, 2C9, HLM): 15 µM
IC50 ([11]; read-out: IC50 CYP2C9/Diclofenac, (+)NADPH pre-incubation): 15.4 µM
Liver microsome stability Cli, RLM [12]: < 9.6 μL/min/mg protein
half-life ([12]; rat, liver microsomes): > 2.42 h
half-life [13]: 2.78 h
hepatocyte CLint [13]: 8.3 µL/min/1e6 cells
mouse hepatocytes Cli [14]: 19.4 μL/min/10^6 cells
half-life ([14]; mouse, hepatocytes): 1.23 h
half-life [15]: > 3.61 h
hepatocyte CLint [15]: < 6.4 µL/min/1e6 cells
Cross reactivity (other serine hydrolases detected) [16]: no cross reactivity against any of the other 39 serine hydrolases detected and 0/39
